Numbers after ± are expanded uncertainties.
Tests used:
[1] = xn = mol fraction of the nth substance listed; conditions: 101.3 kPa, Liquid, Vibrating tube method
[2] = molar heat capacity at constant pressure; xn = mol fraction of the nth substance listed; conditions: 101.3 kPa, Liquid, Small sample (50 mg) DSC

C[N+](=O)[O-] [nitromethane] + CCCCn1cc[n+](C)c1.F[B-](F)(F)F
Conditions	mass density [kg/m3]	molar heat capacity at constant pressure [J/K/mol]
[1], 293.15 K, x2 = 0.1007	1167 ± 0.8	–
[1], 293.15 K, x2 = 0.2066	1181.1 ± 0.8	–
[1], 293.15 K, x2 = 0.2597	1185.9 ± 0.9	–
[1], 293.15 K, x2 = 0.3069	1189.3 ± 0.9	–
[1], 293.15 K, x2 = 0.3957	1194.4 ± 0.9	–
[1], 293.15 K, x2 = 0.41	1195 ± 0.9	–
[1], 293.15 K, x2 = 0.4866	1198.1 ± 1	–
[1], 293.15 K, x2 = 0.5058	1198.7 ± 1	–
[1], 293.15 K, x2 = 0.6016	1201.5 ± 1.1	–
[1], 293.15 K, x2 = 0.6455	1202.6 ± 1.1	–
[1], 293.15 K, x2 = 0.6837	1203.4 ± 1.1	–
[1], 293.15 K, x2 = 0.7793	1205.1 ± 1.2	–
[1], 293.15 K, x2 = 0.8867	1206.5 ± 1.2	–
[1], 298.15 K, x2 = 0.1007	1161.3 ± 0.7	–
[1], 298.15 K, x2 = 0.2066	1176.1 ± 0.8	–
[1], 298.15 K, x2 = 0.2597	1181.1 ± 0.8	–
[1], 298.15 K, x2 = 0.3069	1184.7 ± 0.9	–
[1], 298.15 K, x2 = 0.3957	1190 ± 0.9	–
[1], 298.15 K, x2 = 0.41	1190.6 ± 0.9	–
[1], 298.15 K, x2 = 0.4866	1193.9 ± 1	–
[1], 298.15 K, x2 = 0.5058	1194.6 ± 1	–
[1], 298.15 K, x2 = 0.6016	1197.5 ± 1	–
[1], 298.15 K, x2 = 0.6455	1198.6 ± 1.1	–
[1], 298.15 K, x2 = 0.6837	1199.5 ± 1.1	–
[1], 298.15 K, x2 = 0.7793	1201.3 ± 1.1	–
[1], 298.15 K, x2 = 0.8867	1202.9 ± 1.2	–
[1], 303.15 K, x2 = 0.1007	1155.7 ± 0.7	–
[1], 303.15 K, x2 = 0.2066	1171.1 ± 0.8	–
[1], 303.15 K, x2 = 0.2597	1176.4 ± 0.8	–
[1], 303.15 K, x2 = 0.3069	1180.1 ± 0.9	–
[1], 303.15 K, x2 = 0.3957	1185.6 ± 0.9	–
[1], 303.15 K, x2 = 0.41	1186.3 ± 0.9	–
[1], 303.15 K, x2 = 0.4866	1189.7 ± 1	–
[1], 303.15 K, x2 = 0.5058	1190.4 ± 1	–
[1], 303.15 K, x2 = 0.6016	1193.5 ± 1	–
[1], 303.15 K, x2 = 0.6455	1194.7 ± 1.1	–
[1], 303.15 K, x2 = 0.6837	1195.6 ± 1.1	–
[1], 303.15 K, x2 = 0.7793	1197.5 ± 1.1	–
[1], 303.15 K, x2 = 0.8867	1199.2 ± 1.2	–
[1], 308.15 K, x2 = 0.1007	1150 ± 0.7	–
[1], 308.15 K, x2 = 0.2066	1166 ± 0.8	–
[1], 308.15 K, x2 = 0.2597	1171.5 ± 0.8	–
[1], 308.15 K, x2 = 0.3069	1175.4 ± 0.9	–
[1], 308.15 K, x2 = 0.3957	1181.2 ± 0.9	–
[1], 308.15 K, x2 = 0.41	1181.9 ± 0.9	–
[1], 308.15 K, x2 = 0.4866	1185.5 ± 1	–
[1], 308.15 K, x2 = 0.5058	1186.3 ± 1	–
[1], 308.15 K, x2 = 0.6016	1189.5 ± 1	–
[1], 308.15 K, x2 = 0.6455	1190.8 ± 1.1	–
[1], 308.15 K, x2 = 0.6837	1191.7 ± 1.1	–
[1], 308.15 K, x2 = 0.7793	1193.7 ± 1.1	–
[1], 308.15 K, x2 = 0.8867	1195.6 ± 1.2	–
[1], 313.15 K, x2 = 0.1007	1144.4 ± 0.7	–
[1], 313.15 K, x2 = 0.2066	1161.1 ± 0.8	–
[1], 313.15 K, x2 = 0.2597	1166.8 ± 0.8	–
[1], 313.15 K, x2 = 0.3069	1170.9 ± 0.9	–
[1], 313.15 K, x2 = 0.3957	1176.9 ± 0.9	–
[1], 313.15 K, x2 = 0.41	1177.6 ± 0.9	–
[1], 313.15 K, x2 = 0.4866	1181.4 ± 1	–
[1], 313.15 K, x2 = 0.5058	1182.2 ± 1	–
[1], 313.15 K, x2 = 0.6016	1185.5 ± 1	–
[1], 313.15 K, x2 = 0.6455	1186.9 ± 1	–
[1], 313.15 K, x2 = 0.6837	1187.9 ± 1.1	–
[1], 313.15 K, x2 = 0.7793	1190 ± 1.1	–
[1], 313.15 K, x2 = 0.8867	1191.9 ± 1.2	–
[1], 318.15 K, x2 = 0.1007	1138.7 ± 0.7	–
[1], 318.15 K, x2 = 0.2066	1156.1 ± 0.8	–
[1], 318.15 K, x2 = 0.2597	1162.1 ± 0.8	–
[1], 318.15 K, x2 = 0.3069	1166.3 ± 0.8	–
[1], 318.15 K, x2 = 0.3957	1172.5 ± 0.9	–
[1], 318.15 K, x2 = 0.41	1173.3 ± 0.9	–
[1], 318.15 K, x2 = 0.4866	1177.2 ± 0.9	–
[1], 318.15 K, x2 = 0.5058	1178 ± 1	–
[1], 318.15 K, x2 = 0.6016	1181.6 ± 1	–
[1], 318.15 K, x2 = 0.6455	1183 ± 1	–
[1], 318.15 K, x2 = 0.6837	1184 ± 1.1	–
[1], 318.15 K, x2 = 0.7793	1186.3 ± 1.1	–
[1], 318.15 K, x2 = 0.8867	1188.3 ± 1.2	–
[2], 293.15 K, x2 = 0.0525	–	119.2 ± 1.8
[2], 293.15 K, x2 = 0.1029	–	131.6 ± 2
[2], 293.15 K, x2 = 0.1943	–	154.9 ± 2.4
[2], 293.15 K, x2 = 0.2941	–	180.5 ± 2.8
[2], 293.15 K, x2 = 0.3911	–	205.4 ± 3.2
[2], 293.15 K, x2 = 0.5609	–	248.8 ± 3.9
[2], 293.15 K, x2 = 0.7062	–	285.8 ± 4.4
[2], 293.15 K, x2 = 0.7578	–	299 ± 4.6
[2], 293.15 K, x2 = 0.897	–	334.5 ± 5.2
[2], 293.15 K, x2 = 0.9436	–	346.4 ± 5.4
[2], 293.15 K, x2 = 0.9716	–	353.6 ± 5.5
[2], 298.15 K, x2 = 0.0525	–	119.6 ± 1.9
[2], 298.15 K, x2 = 0.1029	–	132.1 ± 2
[2], 298.15 K, x2 = 0.1943	–	155.6 ± 2.4
[2], 298.15 K, x2 = 0.2941	–	181.5 ± 2.8
[2], 298.15 K, x2 = 0.3911	–	206.7 ± 3.2
[2], 298.15 K, x2 = 0.5609	–	250.6 ± 3.9
[2], 298.15 K, x2 = 0.7062	–	288.1 ± 4.5
[2], 298.15 K, x2 = 0.7578	–	301.4 ± 4.7
[2], 298.15 K, x2 = 0.897	–	337.4 ± 5.2
[2], 298.15 K, x2 = 0.9436	–	349.5 ± 5.4
[2], 298.15 K, x2 = 0.9716	–	356.7 ± 5.5
[2], 303.15 K, x2 = 0.0525	–	120 ± 1.9
[2], 303.15 K, x2 = 0.1029	–	132.7 ± 2.1
[2], 303.15 K, x2 = 0.1943	–	156.4 ± 2.4
[2], 303.15 K, x2 = 0.2941	–	182.5 ± 2.8
[2], 303.15 K, x2 = 0.3911	–	208 ± 3.2
[2], 303.15 K, x2 = 0.5609	–	252.3 ± 3.9
[2], 303.15 K, x2 = 0.7062	–	290.2 ± 4.5
[2], 303.15 K, x2 = 0.7578	–	303.7 ± 4.7
[2], 303.15 K, x2 = 0.897	–	340 ± 5.3
[2], 303.15 K, x2 = 0.9436	–	352.3 ± 5.5
[2], 303.15 K, x2 = 0.9716	–	359.5 ± 5.6
[2], 308.15 K, x2 = 0.0525	–	120.5 ± 1.9
[2], 308.15 K, x2 = 0.1029	–	133.3 ± 2.1
[2], 308.15 K, x2 = 0.1943	–	157.1 ± 2.4
[2], 308.15 K, x2 = 0.2941	–	183.3 ± 2.8
[2], 308.15 K, x2 = 0.3911	–	209.1 ± 3.2
[2], 308.15 K, x2 = 0.5609	–	253.8 ± 3.9
[2], 308.15 K, x2 = 0.7062	–	292.1 ± 4.5
[2], 308.15 K, x2 = 0.7578	–	305.6 ± 4.7
[2], 308.15 K, x2 = 0.897	–	342.3 ± 5.3
[2], 308.15 K, x2 = 0.9436	–	354.7 ± 5.5
[2], 308.15 K, x2 = 0.9716	–	362 ± 5.6
[2], 313.15 K, x2 = 0.0525	–	121 ± 1.9
[2], 313.15 K, x2 = 0.1029	–	133.9 ± 2.1
[2], 313.15 K, x2 = 0.1943	–	157.8 ± 2.4
[2], 313.15 K, x2 = 0.2941	–	184.1 ± 2.9
[2], 313.15 K, x2 = 0.3911	–	210.1 ± 3.3
[2], 313.15 K, x2 = 0.5609	–	255.1 ± 4
[2], 313.15 K, x2 = 0.7062	–	293.7 ± 4.6
[2], 313.15 K, x2 = 0.7578	–	307.3 ± 4.8
[2], 313.15 K, x2 = 0.897	–	344.2 ± 5.3
[2], 313.15 K, x2 = 0.9436	–	356.8 ± 5.5
[2], 313.15 K, x2 = 0.9716	–	364.1 ± 5.6
[2], 318.15 K, x2 = 0.0525	–	121.4 ± 1.9
[2], 318.15 K, x2 = 0.1029	–	134.3 ± 2.1
[2], 318.15 K, x2 = 0.1943	–	158.3 ± 2.5
[2], 318.15 K, x2 = 0.2941	–	184.7 ± 2.9
[2], 318.15 K, x2 = 0.3911	–	210.9 ± 3.3
[2], 318.15 K, x2 = 0.5609	–	256.2 ± 4
[2], 318.15 K, x2 = 0.7062	–	295.1 ± 4.6
[2], 318.15 K, x2 = 0.7578	–	308.7 ± 4.8
[2], 318.15 K, x2 = 0.897	–	345.9 ± 5.4
[2], 318.15 K, x2 = 0.9436	–	358.5 ± 5.6
[2], 318.15 K, x2 = 0.9716	–	365.8 ± 5.7

— the NIST ThermoML archive (doi:10.1016/j.jct.2008.09.002)
